Test: amounts of β-lactam antibiotic, β-lactamase inhibitor (C18 reverse-phase LC, UV-VIS) and aminoglycoside (HPLC-ELSD) in solution over time
Format: physicochemical
Experimental: The amounts of β-lactam antibiotics and β-lactamase inhibitor were determined using C18 reverse-phase LC and UV-VIS detector (Tianjin Hemay BioTech Co., Ltd., analysis method No. HM-K-03). The content of aminoglycoside antibiotics was measured using reverse-phase HPLC and evaporation-light-scattering detector (ELSD detector) (Tianjin Hemay BioTech Co., Ltd., analysis method No. HM-K-08). The amount of antibiotic component at each time point was expressed as a percentage with respect to the amount at the initial time (herein defined as 100%). The relative amount of each antibiotic component in the composition at each time point was expressed as peak area ratio with respect to the corresponding peak area of an external standard.

For `CCN1CCN(C(=O)N[C@@H](C(=O)N[C@@H]2C(=O)N3C(C(=O)O)=C(CSc4nnnn4C)CS[C@H]23)c2ccc(O)cc2)C(=O)C1=O` [Cefoperazone sodium], the “amount of component as percentage with respect to the amount at the initial time” value (“amount of component as percentage” for short) (Example 4: cefoperazone sodium 4 g, sulbactam sodium 0.5 g, gentamicin 80 mg, citrate pH 6.75, 200 mL water, room temperature, Time 0 h) was 101.4%, the “amount of component as percentage” value (Example 4: cefoperazone sodium 4 g, sulbactam sodium 0.5 g, gentamicin 80 mg, citrate pH 6.75, 200 mL water, room temperature, Time 1 h) was 98.66% and the “amount of component as percentage” value (Example 4: cefoperazone sodium 4 g, sulbactam sodium 0.5 g, gentamicin 80 mg, citrate pH 6.75, 200 mL water, room temperature, Time 2 h) was 98.79%. The “amount of component as percentage” value (Example 4: cefoperazone sodium 4 g, sulbactam sodium 0.5 g, gentamicin 80 mg, citrate pH 6.75, 200 mL water, room temperature, Time 4 h) was 101.5%, the “amount of component as percentage” value (Example 4: cefoperazone sodium 4 g, sulbactam sodium 0.5 g, gentamicin 80 mg, citrate pH 6.75, 200 mL water, room temperature, Time 6 h) was 107.4% and the “amount of component as percentage” value (Example 5: freeze-dried cefoperazone sodium 4 g, sulbactam sodium 0.5 g, citrate pH 6.75, + amikacin sulfate 500 mg, 7 days 0° C., dissolved in 100 mL water, Time 0 h) was 101.4%. The “amount of component as percentage” value (Example 5: freeze-dried cefoperazone sodium 4 g, sulbactam sodium 0.5 g, citrate pH 6.75, + amikacin sulfate 500 mg, 7 days 0° C., dissolved in 100 mL water, Time 1 h) was 98.66%, the “amount of component as percentage” value (Example 5: freeze-dried cefoperazone sodium 4 g, sulbactam sodium 0.5 g, citrate pH 6.75, + amikacin sulfate 500 mg, 7 days 0° C., dissolved in 100 mL water, Time 2 h) was 98.79% and the “amount of component as percentage” value (Example 5: freeze-dried cefoperazone sodium 4 g, sulbactam sodium 0.5 g, citrate pH 6.75, + amikacin sulfate 500 mg, 7 days 0° C., dissolved in 100 mL water, Time 4 h) was 101.5%. The “amount of component as percentage” value (Example 5: freeze-dried cefoperazone sodium 4 g, sulbactam sodium 0.5 g, citrate pH 6.75, + amikacin sulfate 500 mg, 7 days 0° C., dissolved in 100 mL water, Time 6 h) was 107.4%, the “amount of component as percentage” value (Example 6: freeze-dried cefoperazone sodium 4 g, sulbactam sodium 1 g, citrate pH 6.75, + etimicin sulfate 200 mg, 7 days 0° C., dissolved in 100 mL water, Time 0 h) was 110.4% and the “amount of component as percentage” value (Example 6: freeze-dried cefoperazone sodium 4 g, sulbactam sodium 1 g, citrate pH 6.75, + etimicin sulfate 200 mg, 7 days 0° C., dissolved in 100 mL water, Time 1 h) was 99.48%. For the same molecule, the “amount of component as percentage” value (Example 6: freeze-dried cefoperazone sodium 4 g, sulbactam sodium 1 g, citrate pH 6.75, + etimicin sulfate 200 mg, 7 days 0° C., dissolved in 100 mL water, Time 2 h) was 101.3%, the “amount of component as percentage” value (Example 6: freeze-dried cefoperazone sodium 4 g, sulbactam sodium 1 g, citrate pH 6.75, + etimicin sulfate 200 mg, 7 days 0° C., dissolved in 100 mL water, Time 4 h) was 98.66% and the “amount of component as percentage” value (Example 6: freeze-dried cefoperazone sodium 4 g, sulbactam sodium 1 g, citrate pH 6.75, + etimicin sulfate 200 mg, 7 days 0° C., dissolved in 100 mL water, Time 6 h) was 98.02%. For the same molecule, the “amount of component as percentage” value (Example 6: freeze-dried cefoperazone sodium 4 g, sulbactam sodium 1 g, citrate pH 6.75, + etimicin sulfate 200 mg, 7 days 0° C., dissolved in 100 mL water, Time 8 h) was 99.30%, the “amount of component as percentage” value (Example 14: freeze-dried cefoperazone sodium 4 g, sulbactam sodium 2 g, citrate pH 6.75, 7 days 0° C., in 100 mL water, 10 mL + gentamicin sulfate 16 mg, room temperature, Time 0 h) was 98.42% and the “amount of component as percentage” value (Example 14: freeze-dried cefoperazone sodium 4 g, sulbactam sodium 2 g, citrate pH 6.75, 7 days 0° C., in 100 mL water, 10 mL + gentamicin sulfate 16 mg, room temperature, Time 1 h) was 97.39%. The “amount of component as percentage” value (Example 14: freeze-dried cefoperazone sodium 4 g, sulbactam sodium 2 g, citrate pH 6.75, 7 days 0° C., in 100 mL water, 10 mL + gentamicin sulfate 16 mg, room temperature, Time 2 h) was 97.46%, the “amount of component as percentage” value (Example 14: freeze-dried cefoperazone sodium 4 g, sulbactam sodium 2 g, citrate pH 6.75, 7 days 0° C., in 100 mL water, 10 mL + gentamicin sulfate 16 mg, room temperature, Time 4 h) was 94.70% and the “amount of component as percentage” value (Example 14: freeze-dried cefoperazone sodium 4 g, sulbactam sodium 2 g, citrate pH 6.75, 7 days 0° C., in 100 mL water, 10 mL + gentamicin sulfate 16 mg, room temperature, Time 6 h) was 93.02%. For the same molecule, the “amount of component as percentage” value (Example 15: freeze-dried cefoperazone sodium 4 g, sulbactam sodium 4 g, citrate pH 6.75, 7 days 0° C., in 100 mL water, 10 mL + gentamicin sulfate 16 mg, room temperature, Time 0 h) was 101.7%, the “amount of component as percentage” value (Example 15: freeze-dried cefoperazone sodium 4 g, sulbactam sodium 4 g, citrate pH 6.75, 7 days 0° C., in 100 mL water, 10 mL + gentamicin sulfate 16 mg, room temperature, Time 1 h) was 96.06% and the “amount of component as percentage” value (Example 15: freeze-dried cefoperazone sodium 4 g, sulbactam sodium 4 g, citrate pH 6.75, 7 days 0° C., in 100 mL water, 10 mL + gentamicin sulfate 16 mg, room temperature, Time 2 h) was 95.72%. For the same molecule, the “amount of component as percentage” value (Example 15: freeze-dried cefoperazone sodium 4 g, sulbactam sodium 4 g, citrate pH 6.75, 7 days 0° C., in 100 mL water, 10 mL + gentamicin sulfate 16 mg, room temperature, Time 4 h) was 97.32%, the “amount of component as percentage” value (Example 15: freeze-dried cefoperazone sodium 4 g, sulbactam sodium 4 g, citrate pH 6.75, 7 days 0° C., in 100 mL water, 10 mL + gentamicin sulfate 16 mg, room temperature, Time 6 h) was 69.95% and the “amount of component as percentage” value (Example 16: 10 mL of the final solution (cefoperazone sodium, tazobactam sodium, etimicin sulfate, citrate) + gentamicin sulfate 16 mg, Time 0 h) was 92.44%. The “amount of component as percentage” value (Example 16: 10 mL of the final solution (cefoperazone sodium, tazobactam sodium, etimicin sulfate, citrate) + gentamicin sulfate 16 mg, Time 1 h) was 104.6%, the “amount of component as percentage” value (Example 16: 10 mL of the final solution (cefoperazone sodium, tazobactam sodium, etimicin sulfate, citrate) + gentamicin sulfate 16 mg, Time 2 h) was 102.4% and the “amount of component as percentage” value (Example 16: 10 mL of the final solution (cefoperazone sodium, tazobactam sodium, etimicin sulfate, citrate) + gentamicin sulfate 16 mg, Time 4 h) was 97.95%. For the same molecule, the “amount of component as percentage” value (Example 16: 10 mL of the final solution (cefoperazone sodium, tazobactam sodium, etimicin sulfate, citrate) + gentamicin sulfate 16 mg, Time 6 h) was 98.90%, the “amount of component as percentage” value (Example 16: 10 mL of the final solution (cefoperazone sodium, tazobactam sodium, etimicin sulfate, citrate) + gentamicin sulfate 16 mg, Time 8 h) was 102.9% and the “amount of component as percentage” value (Example 16: freeze-dried cefoperazone sodium 4 g, tazobactam sodium 1 g, citrate pH 6.75, 7 days 0° C., in 100 mL water, 10 mL + etimicin sulfate 20 mg, room temperature, Time 0 h) was 102.9%. The “amount of component as percentage” value (Example 16: freeze-dried cefoperazone sodium 4 g, tazobactam sodium 1 g, citrate pH 6.75, 7 days 0° C., in 100 mL water, 10 mL + etimicin sulfate 20 mg, room temperature, Time 1 h) was 108.6%, the “amount of component as percentage” value (Example 16: freeze-dried cefoperazone sodium 4 g, tazobactam sodium 1 g, citrate pH 6.75, 7 days 0° C., in 100 mL water, 10 mL + etimicin sulfate 20 mg, room temperature, Time 2 h) was 104.6% and the “amount of component as percentage” value (Example 16: freeze-dried cefoperazone sodium 4 g, tazobactam sodium 1 g, citrate pH 6.75, 7 days 0° C., in 100 mL water, 10 mL + etimicin sulfate 20 mg, room temperature, Time 4 h) was 99.50%. The “amount of component as percentage” value (Example 16: freeze-dried cefoperazone sodium 4 g, tazobactam sodium 1 g, citrate pH 6.75, 7 days 0° C., in 100 mL water, 10 mL + etimicin sulfate 20 mg, room temperature, Time 6 h) was 98.91%, the “amount of component as percentage” value (Example 16: freeze-dried cefoperazone sodium 4 g, tazobactam sodium 1 g, citrate pH 6.75, 7 days 0° C., in 100 mL water, 10 mL + etimicin sulfate 20 mg, room temperature, Time 8 h) was 103.4% and the “amount of component as percentage” value (Example 17: freeze-dried cefoperazone sodium 4 g, sulbactam sodium 1 g, citrate pH 6.75, 7 days 0° C., in 100 mL water, 10 mL + amikacin sulfate 40 mg, room temperature, Time 0 h) was 92.30%. The “amount of component as percentage” value (Example 17: freeze-dried cefoperazone sodium 4 g, sulbactam sodium 1 g, citrate pH 6.75, 7 days 0° C., in 100 mL water, 10 mL + amikacin sulfate 40 mg, room temperature, Time 1 h) was 94.80%, the “amount of component as percentage” value (Example 17: freeze-dried cefoperazone sodium 4 g, sulbactam sodium 1 g, citrate pH 6.75, 7 days 0° C., in 100 mL water, 10 mL + amikacin sulfate 40 mg, room temperature, Time 2 h) was 94.06% and the “amount of component as percentage” value (Example 17: freeze-dried cefoperazone sodium 4 g, sulbactam sodium 1 g, citrate pH 6.75, 7 days 0° C., in 100 mL water, 10 mL + amikacin sulfate 40 mg, room temperature, Time 4 h) was 94.12%. The “amount of component as percentage” value (Example 17: freeze-dried cefoperazone sodium 4 g, sulbactam sodium 1 g, citrate pH 6.75, 7 days 0° C., in 100 mL water, 10 mL + amikacin sulfate 40 mg, room temperature, Time 6 h) was 93.15% and the “amount of component as percentage” value (Example 17: freeze-dried cefoperazone sodium 4 g, sulbactam sodium 1 g, citrate pH 6.75, 7 days 0° C., in 100 mL water, 10 mL + amikacin sulfate 40 mg, room temperature, Time 8 h) was 94.50%.
